According to PubChem BioAssay (NCI):
Several values for one entry are separate records, joined by “and”; a condition that tells them apart may be missing. Identical values can stand only once.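 Briefly, cells in 96-well plates were exposed to five compound concentrations for 48 h, and endpoints were estimated by linear interpolation. GI50 marks 50% less growth. TGI: total growth inhibition.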

Experiments:
Experiment in all cases: NCI tumour cell line growth inhibition, 48 h
HCC-2998 colon = test system: HCC-2998 colon
COLO 205 colon = test system: COLO 205 colon
ACHN renal = test system: ACHN renal
UO-31 renal = test system: UO-31 renal
HT29 colon = test system: HT29 colon
CCRF-CEM leukemia = test system: CCRF-CEM leukemia
OVCAR-4 ovarian = test system: OVCAR-4 ovarian
A549 NSCLC = test system: A549 NSCLC
OVCAR-8 ovarian = test system: OVCAR-8 ovarian
NCI-H460 lung = test system: NCI-H460 lung

| Structure (SMILES) | GI50 (HCC-2998 colon) | TGI (HCC-2998 colon) | GI50 (COLO 205 colon) | TGI (COLO 205 colon) | GI50 (ACHN renal) | TGI (ACHN renal) | GI50 (UO-31 renal) | TGI (UO-31 renal) | GI50 (HT29 colon) | TGI (HT29 colon) | GI50 (CCRF-CEM leukemia) | TGI (CCRF-CEM leukemia) | GI50 (OVCAR-4 ovarian) | TGI (OVCAR-4 ovarian) | GI50 (A549 NSCLC) | TGI (A549 NSCLC) | GI50 (OVCAR-8 ovarian) | TGI (OVCAR-8 ovarian) | GI50 (NCI-H460 lung) | TGI (NCI-H460 lung) |
| --- | --- | --- | --- | --- | --- | --- | --- | --- | --- | --- | --- | --- | --- | --- | --- | --- | --- | --- | --- | --- |
| Oc1nc(NCCc2ccccc2)sc1/C=C1\C=Nc2ncccc21 | 3.6 µM and 6.06 µM | 13.2 µM and 24.3 µM | 1.93 µM and 2.96 µM | 5.95 µM and 11 µM | 2.45 µM and 2.7 µM | 19.1 µM and 10.8 µM | 3.53 µM and 3.83 µM | 12.4 µM and 84.6 µM | 2.8 µM and 4 µM | 11.4 µM and 26.7 µM | 3.31 µM and 2.42 µM | 13.9 µM and 7.8 µM | 2.95 µM and 3.69 µM | 11.7 µM and 18.7 µM | 3.18 µM and 3.67 µM | 12.5 µM and 14.6 µM | 2.91 µM and 3.12 µM | 13.4 µM and 14.8 µM | 3.01 µM and 3.16 µM | 10.2 µM and 13.6 µM |
| CC(C)=CC/C=C(/C)[C@H]1CC[C@]2(C)[C@@H]1CC[C@@H]1[C@@]3(C)CCC(=O)NC(C)(C)[C@@H]3CC[C@]12C | 20.2 µM | 35.8 µM | 25.3 µM | 64.7 µM | 20 µM | 43 µM | 15.6 µM | 29.2 µM | 20.4 µM | 72.3 µM | 12.4 µM | 47.9 µM | 21.9 µM | 75 µM | 30.2 µM | > 100 µM | 26 µM | 76.7 µM | 33.9 µM | > 100 µM |
| CCOc1ccc(Cc2nccc3cc(OCC)c(OCC)cc23)cc1OCC | 5.53 µM | 21.3 µM | 4.28 µM | 19 µM | 7.54 µM | 45.1 µM | 2.87 µM | 32.4 µM | 0.863 µM | 12.6 µM | 8.45 µM | 65.1 µM | 9.74 µM | 26 µM | 5.7 µM | 27.8 µM | 5.33 µM | 31.1 µM | 3.2 µM | 21.8 µM |
| COc1cc2c(cc1OC)C(CCc1ccc(Cl)cc1)N(C)CC2 (stereo not given) | 16.4 µM | 31.1 µM | 17.6 µM | 34.6 µM | 25.7 µM | 92 µM | 20.6 µM | > 100 µM | 14.2 µM | 86 µM | 29.1 µM | > 100 µM | 33.9 µM | > 100 µM | 45.2 µM | > 100 µM | 32.6 µM | > 100 µM | 17.8 µM | 40.2 µM |
| CCC(=O)C1=C(OC(C)=O)C2Cc3c(n(C)c4ccccc34)C(C1)N2C (stereo not given) | – | > 100 µM | – | > 100 µM | – | > 100 µM | – | > 100 µM | – | > 100 µM | – | 80.9 µM | – | > 100 µM | – | > 100 µM | – | 41.6 µM | – | > 100 µM |
| COc1ccc(/C=C/c2cc(OC)c(O[Si](C)(C)C(C)(C)C)c(OC)c2)cc1 | – | > 100 µM | – | > 100 µM | – | > 100 µM | – | > 100 µM | – | > 100 µM | – | > 100 µM | – | > 100 µM | – | > 100 µM | – | > 100 µM | – | > 100 µM |
| COC1=C(OC)C(=O)C(/C=C(\C)C(=O)O)=C(C)C1=O | > 100 µM | > 100 µM | > 100 µM | > 100 µM | > 100 µM | > 100 µM | > 100 µM | > 100 µM | > 100 µM | > 100 µM | 67 µM | > 100 µM | > 100 µM | > 100 µM | > 100 µM | > 100 µM | > 100 µM | > 100 µM | > 100 µM | > 100 µM |
| CC(=O)NNc1nc(C)c(C(=O)NNC(=O)C(=O)Nc2ccc(C)c(C)c2)s1 | – | > 100 µM | – | > 100 µM | – | > 100 µM | – | > 100 µM | – | > 100 µM | – | > 100 µM | – | > 100 µM | – | > 100 µM | – | > 100 µM | – | > 100 µM |
